# Assay results taken from ChEMBL document CHEMBL5518219, “Development of a Series of Pyrrolopyridone MAT2A Inhibitors” (J Med Chem, 2024).
# The source made the active and inactive calls. The rule behind the calls is not given here.
# Legend:
# [1] = Metabolic stability in rat hepatocytes assessed as intrinsic clearance measured per 10^6 cells; format: ADME, cell-based, Hepatocyte
# [2] = Lipophilicity, logD of compound at pH 7.4 by shake flask method; format: physicochemical; conditions: buffer
# [3] = target: S-adenosylmethionine synthase isoform type-2 (Homo sapiens, UniProt P31153); test: Binding affinity to MAT2a (unknown origin) assessed as dissociation constant by ITC analysis
# Chain of S-adenosylmethionine synthase isoform type-2 (P31153 whole entry, canonical isoform): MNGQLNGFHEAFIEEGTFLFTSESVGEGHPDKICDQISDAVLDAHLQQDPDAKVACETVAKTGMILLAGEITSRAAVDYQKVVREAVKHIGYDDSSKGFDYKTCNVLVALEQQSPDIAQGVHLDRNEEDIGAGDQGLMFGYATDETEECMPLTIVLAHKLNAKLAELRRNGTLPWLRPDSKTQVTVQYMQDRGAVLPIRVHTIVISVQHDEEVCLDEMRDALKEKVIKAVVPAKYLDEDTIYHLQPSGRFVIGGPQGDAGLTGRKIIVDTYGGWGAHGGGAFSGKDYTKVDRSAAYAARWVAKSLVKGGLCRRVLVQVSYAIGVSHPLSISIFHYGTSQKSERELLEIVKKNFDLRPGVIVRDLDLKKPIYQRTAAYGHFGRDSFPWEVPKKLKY
# [4] = Metabolic stability in human liver microsomes assessed as intrinsic clearance; format: ADME, Microsome
# HCT-116 = test: cells; conditions: Homo sapiens, HCT-116, 120 h, read-out: pGI50 (converted)
# cells = conditions: Homo sapiens, HCT116-MTAP null, 120 h, read-out: pGI50 (converted)
# PXR = target: T1, PXR (Homo sapiens, UniProt O75469); test: Activation of human PXR assessed as fold change at 10 uM relative to DMSO; format: toxicity; conditions: read-out: FC
# T1 sequence (O75469 whole entry): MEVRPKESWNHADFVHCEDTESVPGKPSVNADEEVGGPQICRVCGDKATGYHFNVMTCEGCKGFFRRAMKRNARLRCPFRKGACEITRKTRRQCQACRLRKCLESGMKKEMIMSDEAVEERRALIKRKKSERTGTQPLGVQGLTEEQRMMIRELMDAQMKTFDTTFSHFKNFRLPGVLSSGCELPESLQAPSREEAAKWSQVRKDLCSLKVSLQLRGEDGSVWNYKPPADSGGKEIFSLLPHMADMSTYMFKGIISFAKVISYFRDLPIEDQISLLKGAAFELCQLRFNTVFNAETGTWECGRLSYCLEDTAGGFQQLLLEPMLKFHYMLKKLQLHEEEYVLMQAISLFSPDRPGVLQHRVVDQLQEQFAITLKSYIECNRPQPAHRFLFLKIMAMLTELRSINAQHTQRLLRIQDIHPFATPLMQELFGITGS
# animal or person [5] = conditions: Mus musculus, NCR nude, HCT116-MTAP null, po, read-out: INH
# [6] = Solubility in FaSSIF at pH 6.5; format: ADME
# [7] = Plasma protein binding in mouse assessed as free fraction by equilibrium dialysis; format: ADME, cell-free
# [8] = Plasma protein binding in rat assessed as free fraction by equilibrium dialysis; format: ADME, cell-free
# [9] = Oral bioavailability in mouse at 1 mg/kg; format: ADME, organism-based; conditions: in vivo
# [10] = Unbound brain-to-plasma concentration ratio in rat; format: ADME, cell-free; conditions: read-out: K(p,uu,brain)
# [11] = Unbound fraction in nude mouse plasma at 30 mg/kg, po measured after 24 hrs; format: ADME, organism-based
# [12] = Volume of distribution at steady state in rat at 1 mg/kg, po or 0.5 mg/kg, iv; format: ADME, organism-based; conditions: in vivo
# animal or person [13] = conditions: Mus musculus, NCR nude, HCT116-MTAP null, po, read-out: INH; remark: listed apart in the source
# [14] = Solubility in simulated gastric fluid at pH 1; format: ADME
# [15] = Half life in mouse at 1 mg/kg, po or 0.5 mg/kg, iv; format: ADME, organism-based; conditions: in vivo
# [16] = Half life in rat at 1 mg/kg, po or 0.5 mg/kg, iv; format: ADME, organism-based; conditions: in vivo
# [17] = Volume of distribution at steady state in mouse at 1 mg/kg, po or 0.5 mg/kg, iv; format: ADME, organism-based; conditions: in vivo
# [18] = Solubility in FeSSIF at pH 5; format: ADME
# [19] = Plasma protein binding in human assessed as free fraction by equilibrium dialysis; format: ADME, cell-free
# [20] = Plasma protein binding in dog assessed as free fraction by equilibrium dialysis; format: ADME, cell-free, Canis lupus familiaris
# [21] = Intrinsic clearance in mouse hepatocytes measured per 10^6 cells; format: ADME, cell-based, Hepatocyte; conditions: read-out: CLH
# HCT116-MTAP null = test: Antitumor activity against human HCT116-MTAP null cells xenografted in NCR nude mouse assessed as reduction in tumor volume at 20 mg/kg, po administered twice daily for 24 days and measured twice weekly; format: functional, organism-based; conditions: time 24.0 day
# NCI-H441 = test: Antiproliferative activity against human NCI-H441 cells harboring MTAP knockout; format: functional, cell-based
# [22] = Aqueous solubility in phosphate buffer at pH 7.4 measured after 24 hrs; format: physicochemical
# [23] = Oral bioavailability in rat at 1 mg/kg; format: ADME, organism-based; conditions: in vivo
# [24] = Apparent permeability in human Caco-2 cells at 10 uM; format: ADME, cell-based
smiles,measurement,setting,value
Cn1cc(-c2cc3[nH]nc(C4CC4)c3n(-c3ccc(OC(F)F)cc3)c2=O)ccc1=O,hepatocyte CLint,[1],< 1 µL/min/1e6 cells
same,logD,[2],2
CN(C)CCc1nnc2cc(-c3ccccc3)c3cc(Cl)ccc3n12,Kd,[3],170 nM
O=c1ccc2[nH]nc(C3CC3)c2n1-c1ccc(OC(F)F)cc1,microsomal CLint,[4],< 3 µL/min/mg
same,hepatocyte CLint,[1],1 µL/min/1e6 cells
same,logD,[2],2.1
O=c1c(-c2ccc(O)cc2)cc2[nH]nc(C3CC3)c2n1-c1ccc(OC(F)F)cc1,hepatocyte CLint,[1],2 µL/min/1e6 cells
same,logD,[2],3.4
CCc1ccc(-n2c(=O)c(-c3ccc4nn(C)cc4c3)cc3[nH]nc(C4CC4)c32)cn1,hepatocyte CLint,[1],19 µL/min/1e6 cells
same,logD,[2],2.4
COc1ccc(-c2nccc3[nH]nc(C4CC4)c23)cc1,microsomal CLint,[4],89 µL/min/mg
same,hepatocyte CLint,[1],38 µL/min/1e6 cells
same,logD,[2],3.3
Cn1cc2ccc(-c3cc4[nH]nc(C5CC5)c4n(-c4ccc(OC(F)F)cc4)c3=O)cc2n1,hepatocyte CLint,[1],25 µL/min/1e6 cells
same,logD,[2],3.4
Cc1n[nH]c2cc(-c3ccc4nn(C)cc4c3)c(=O)n(-c3ccc(OC(F)F)cc3)c12,hepatocyte CLint,[1],< 1 µL/min/1e6 cells
same,logD,[2],3
Cc1ccc(-n2c(=O)c(-c3ccc4nn(C)cc4c3)cc3[nH]nc(C4CC4)c32)cc1,hepatocyte CLint,[1],25 µL/min/1e6 cells
same,logD,[2],3.3
COc1ccc(-c2c(Nc3ccccn3)[nH]c3c(C4=CCCCC4)c(-c4ccccc4)nn3c2=O)cc1,GI50,HCT-116,1580 nM
same,GI50,cells,501 nM
Cn1cc2cc(-c3cc4[nH]nc(C5CC5)c4n(-c4ccc(CO)cc4)c3=O)ccc2n1,hepatocyte CLint,[1],35 µL/min/1e6 cells
same,logD,[2],2.2
Cc1ccc(-n2c(=O)c(-c3ccc4nn(C)cc4c3)cc3[nH]nc(C4CC4)c32)cn1,hepatocyte CLint,[1],< 1 µL/min/1e6 cells
same,logD,[2],2.2
COc1ccc(-c2cc3[nH]nc(C4CC4)c3n(-c3ccc(OC(F)F)cc3)c2=O)nc1,hepatocyte CLint,[1],7 µL/min/1e6 cells
same,logD,[2],3.4
Cn1cc2cc(-c3cc4[nH]nc(C5CC5)c4n(-c4ccc(OC(F)F)cn4)c3=O)ccc2n1,hepatocyte CLint,[1],2 µL/min/1e6 cells
same,logD,[2],2.5
Cn1cc2cc(-c3cc4[nH]nc(C5CC5)c4n(-c4ccc(CCO)cc4)c3=O)ccc2n1,hepatocyte CLint,[1],4 µL/min/1e6 cells
same,logD,[2],2.3
CCc1n[nH]c2cc(-c3ccc4nn(C)cc4c3)c(=O)n(-c3ccc(OC(F)F)cc3)c12,hepatocyte CLint,[1],< 1 µL/min/1e6 cells
same,logD,[2],3.1
COc1ccc(-n2c(=O)c(-c3ccc4nn(C)cc4c3)cc3[nH]nc(C4CC4)c32)cc1,hepatocyte CLint,[1],3 µL/min/1e6 cells
same,logD,[2],2.8
COc1ccc(-c2cc3[nH]nc(C4CC4)c3c(-c3ccc(OC(F)F)cc3)n2)cc1,microsomal CLint,[4],21 µL/min/mg
same,hepatocyte CLint,[1],26 µL/min/1e6 cells
same,logD,[2],> 4.5
N#Cc1cc2[nH]nc(C3CC3)c2c(-c2ccc(OC(F)F)cc2)n1,microsomal CLint,[4],< 3 µL/min/mg
same,hepatocyte CLint,[1],5 µL/min/1e6 cells
same,logD,[2],3.9
Cn1cc2cc(-c3cc4[nH]nc(C5CC5)c4n(-c4ccc(Cl)cc4)c3=O)ccc2n1,hepatocyte CLint,[1],5 µL/min/1e6 cells
same,logD,[2],3.4
COc1ccc(-c2cc3[nH]nc(C4CC4)c3n(-c3ccc(OC(F)F)cc3)c2=O)cn1,hepatocyte CLint,[1],3 µL/min/1e6 cells
same,logD,[2],3.5
Cc1ccc(-n2c(=O)c(-c3ccc4nn(C)cc4c3)cc3[nH]nc(C4CC4)c32)nc1,hepatocyte CLint,[1],5 µL/min/1e6 cells
same,logD,[2],2.2
Cn1cc2cc(-c3cc4[nH]nc([C@@H]5CCOC5)c4n(-c4ccc(OC(F)F)cc4)c3=O)ccc2n1,hepatocyte CLint,[1],4 µL/min/1e6 cells
same,logD,[2],2.5
FC(F)Oc1ccc(-c2nccc3[nH]nc(C4CC4)c23)cc1,microsomal CLint,[4],54 µL/min/mg
same,hepatocyte CLint,[1],20 µL/min/1e6 cells
same,logD,[2],3.8
C[C@@H](O)c1ccc(-n2c(=O)c(-c3ccc4nn(C)cc4c3)cc3[nH]nc(C4CC4)c32)cc1,hepatocyte CLint,[1],5 µL/min/1e6 cells
same,logD,[2],2.4
Cn1cc2cc(-c3cc4[nH]nc(C5CC5)c4n(-c4ccc(OC(F)F)nc4)c3=O)ccc2n1,hepatocyte CLint,[1],< 1 µL/min/1e6 cells
same,logD,[2],3
CNc1ccc(-n2c(=O)c(-c3ccc4nn(C)cc4c3)cc3[nH]nc(C4CC4)c32)cn1,hepatocyte CLint,[1],< 1 µL/min/1e6 cells
same,logD,[2],2.3
Cc1nc2ccc(-c3cc4[nH]nc(C5CC5)c4n(-c4ccc(OC(F)F)cc4)c3=O)cc2n1C,hepatocyte CLint,[1],< 2 µL/min/1e6 cells
same,logD,[2],3.5
COc1ccc(-n2cc3cnc(NCC(F)(F)F)nc3c(-c3ccc(Br)cc3)c2=O)cc1,fold induction at 10 µM,PXR,25
COc1ccc(-c2c3c(C4CC4)n[nH]c3cc[n+]2[O-])cc1,microsomal CLint,[4],< 3 µL/min/mg
same,hepatocyte CLint,[1],< 1 µL/min/1e6 cells
same,logD,[2],1.3
Cc1ncc(-n2c(=O)c(-c3ccc4nn(C)cc4c3)cc3[nH]nc(C4CC4)c32)cn1,hepatocyte CLint,[1],< 1 µL/min/1e6 cells
same,logD,[2],1.6
Cn1cc2cc(-c3cc4[nH]nc(C5CC5)c4n(-c4ccc(OC(F)F)cc4)c3=O)ccc2n1,inhibition in vivo at 20 mg/kg,animal or person [5],> 90%
same,solubility,[6],3.3 µM
same,fraction unbound,[7],0.03
same,fraction unbound,[8],0.006
same,bioavailability,[9],100%
same,Kp uu,[10],0.03
same,GI50,cells,79.4 nM
same,fraction unbound at 24 h,[11],0.029
same,Vdss,[12],0.8 L/kg
same,hepatocyte CLint,[1],< 1 µL/min/1e6 cells
same,inhibition in vivo at 20 mg/kg,animal or person [13],> 90%
same,solubility,[14],70.4 µM
same,half-life,[15],3 h
same,half-life,[16],6.3 h
same,Vdss,[17],5.5 L/kg
same,solubility,[18],11.2 µM
same,fraction unbound,[19],0.032
same,fraction unbound,[20],0.12
same,hepatocyte CLint,[21],1.4 µL/min/1e6 cells
same,Activity,HCT116-MTAP null,Active
same,Activity,NCI-H441,Active
same,solubility at 24 h,[22],3.2 µM
same,bioavailability,[23],100%
same,Papp at 10 µM,[24],9.4 ×10⁻⁶ cm/s
same,logD,[2],3.4
Cn1nnc2ccc(-c3cc4[nH]nc(C5CC5)c4n(-c4ccc(OC(F)F)cc4)c3=O)cc21,hepatocyte CLint,[1],< 1 µL/min/1e6 cells
same,logD,[2],3.1
COc1ccc(-c2cc3[nH]nc(C4CC4)c3n(-c3ccc(OC(F)F)cc3)c2=O)cc1,hepatocyte CLint,[1],7 µL/min/1e6 cells
same,logD,[2],4
O=c1c(-c2ccccc2)cc2[nH]nc(C3CC3)c2n1-c1ccc(OC(F)F)cc1,hepatocyte CLint,[1],14 µL/min/1e6 cells
same,logD,[2],4
[O-][n+]1ccc2[nH]nc(C3CC3)c2c1-c1ccc(OC(F)F)cc1,microsomal CLint,[4],< 3 µL/min/mg
same,hepatocyte CLint,[1],< 1 µL/min/1e6 cells
same,logD,[2],1.6
